Source: patent publication US20250084036A1, “COMPOUND, ALDEHYDE DEHYDROGENASE 2 ACTIVATOR, PHARMACEUTICAL COMPOSITION, AND THERAPEUTIC AND/OR PROPHYLACTIC DRUG” (Alchemedicine, Inc., priority 2022, published 2025)

What was measured:
[1] = system: pain induced by carrageenan, C57BL/6J mice; experiment: Test Example 5: Suppression effect on pain induced by carrageenan (von Frey escape score); type: in vivo, mouse; settings: mean ± SE, n=8
Protocol: This experiment was carried out with reference to Science Translational Medicine 6, 251ra118 (2014). Animals used were 7-week-old male C57BL/6J mice (The Jackson Laboratory Japan, Inc.). To induce mechanical allodynia to a sole part, carrageenan was subcutaneously administered to the sole of the left hind limb of each mouse. The escape response against mechanical stimulation 180 minutes after the induction was measured by using a von Frey filament with bending force (0.16 grams) to the sole surface of the left hind limb in the ascending direction. The mouse was stimulated in the vertical direction for 6 seconds until the filament bent, and the escape response of the mouse was rated with three-grade scoring (0: no response or startle response (displacing the foot without ascending), 1: ascending the foot, 2: licking or shaking the foot). Stimulation was performed 10 times, and the total value of 10 scores (escape score) was calculated.
The compound (Example 3) was dissolved in DMSO/PEG400 (volume ratio: 1:1), and 2, 6, or 20 mg/kg (no compound for a Vehicle group) of the compound was subcutaneously administered to the back of the neck three times in total at the same dose: 15 minutes before injection of carrageenan, 30 minutes after injection of carrageenan, and 150 minutes after injection of carrageenan, each at a dose of 5 mL/kg in liquid volume. A 1.5% carrageenan solution was prepared with physiological saline, and subcutaneously administered to the sole of the left hind limb at 7 μL/body.
In significance test, multiple comparison by the Steel's test was carried out for comparison between the Vehicle group and Example 3 group, where the significance level was set to 5%, and calculation was separately performed for lower than 5% (p<0.05) and for lower than 1% (p<0.01). The commercially available statistical program SAS SYSTEM (SAS Institute Japan Ltd.) was used for the significance test.

[2] = molecular target: T1, human recombinant ALDH2 enzyme (Homo sapiens, UniProt P05091); experiment: Test Example 1-1: ALDH2 activation effect (acetaldehyde oxidation rate, PicoProbe kit); type: biochemical; settings: ALDH2 2 μg/mL, 180 min measurement
T1 construct: purchased Abcam ab87415
T1 sequence (P05091 18-517): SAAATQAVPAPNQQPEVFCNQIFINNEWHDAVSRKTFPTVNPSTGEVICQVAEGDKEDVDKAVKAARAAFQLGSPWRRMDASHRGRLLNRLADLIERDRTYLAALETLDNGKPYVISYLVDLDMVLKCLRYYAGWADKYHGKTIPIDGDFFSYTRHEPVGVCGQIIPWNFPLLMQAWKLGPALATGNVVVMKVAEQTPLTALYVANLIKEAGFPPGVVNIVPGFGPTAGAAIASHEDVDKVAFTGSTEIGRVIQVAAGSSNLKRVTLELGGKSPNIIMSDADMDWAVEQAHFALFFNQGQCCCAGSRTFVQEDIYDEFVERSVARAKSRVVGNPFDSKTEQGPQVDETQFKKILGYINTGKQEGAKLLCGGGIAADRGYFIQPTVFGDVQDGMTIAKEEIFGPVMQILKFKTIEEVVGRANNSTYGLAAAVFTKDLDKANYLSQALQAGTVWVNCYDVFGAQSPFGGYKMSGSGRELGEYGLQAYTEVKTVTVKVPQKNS
Protocol: The activation effect of each test compound on the acetaldehyde oxidation rate of ALDH2 was measured with the following method. A test was conducted by using a commercially available PicoProbe™ Aldehyde dehydrogenase Activity Assay Kit (manufactured by BioVision Inc.) with reference to an instruction attached to the product under the following conditions. To each well of a 384-well plate, the following (1) to (3) were sequentially added with a pipette: • (1) 10 μL of solution obtained by dissolving and diluting a human recombinant ALDH2 enzyme (manufactured by Abcam, product number: ab87415) with ALDH assay Buffer (final concentration: 2 μg/mL); • (2) 10 μL of 30 μM or 90 μM test compound solution (with 3% DMSO) prepared by using ALDH assay Buffer; and • (3) 10 μL of Reaction mix composed with ratio of […] of ALDH assay Buffer, 0.6 μL of PicoProbe, 0.3 μL of Substrate Mix, and 1.5 μL of Acetaldehyde.
Before addition of (3), incubation was performed at room temperature for 5 minutes. After addition of (3), fluorescence intensity was measured at room temperature every 2.5 minutes over a period of 180 minutes by using an EnSight (manufactured by PerkinElmer Inc.) to determine the oxidation rate. Wavelengths of 535 nm and 587 nm were used for fluorescence intensities of excitation and emission, respectively.

[3] = Test Example 2: Metabolic stability with mouse hepatic microsomes; type: in vitro ADME; settings: after 30 minutes, 37° C., NADPH; also: tested at 0.99 µM
Protocol: Metabolic stability in mouse hepatic microsomes was evaluated with the following method.
• (1) Mouse hepatic microsomes: 20 mg/mL • (2) Test compound: 1.1 mM DMSO solution • (3) Potassium phosphate buffer solution: 66.7 mM (pH 7.4) • (4) NADPH solution: 10 mM in potassium phosphate buffer solution • (5) Quenching solution: 0.5% formic acid-acetonitrile solution with warfarin as internal standard substance
Into a propylene tube, 971.5 μL of the potassium phosphate buffer solution and 27.5 μL of the mouse hepatic microsomes were put, and suspended. Thereto, 1 μL of a test compound was added, and 180 μL was taken from this mixture and transferred into another tube. The mixture was preincubated at 37° C. for 5 minutes, and 20 μL of the NADPH solution (for the case with an incubation time of 30 minutes) or 20 μL of the potassium phosphate buffer solution (for the case with an incubation time of 0 minutes) was then added thereto. After incubation, 200 μL of the quenching solution was added to terminate the reaction. Subsequently, centrifugation was performed at 3220×g for 20 minutes, and the concentration of the unchanged form of the test compound in 200 μL of the supernatant was measured with LC-MS/MS. On the basis of the peak area obtained for the unchanged form, the residual rate (%) of the unchanged form was calculated as that for the case with an incubation time of 0 minutes was assumed as 100%.

[4] = Test Example 3: Metabolic stability with human hepatic microsomes; type: in vitro ADME; settings: human hepatic microsomes 0.1 mg protein/mL, 0.1 μmol/L test compound, after 30 minutes, 37° C.
Protocol: For the compounds of Examples 1 to 9, which had been confirmed to have stability in the mouse hepatic microsome test, metabolic stability with human hepatic microsomes was measured. The specific method is as follows. • (1) Fifty microliter-portions were taken from 0.2 μmol/L test compound diluted with β-NADPH solution. • (2) Fifty microliters of 0.2 mg protein/mL human hepatic microsome solution was added to each (except for a sample with a reaction time of 0 minutes). • (3) Incubation was performed with shaking at 37° C. for 30 minutes (concentration in reaction sample: 0.1 μmol/L test compound, 0.1 mg protein/mL human hepatic microsome) • (4) After incubation, 400 μL of methanol was added to terminate the reaction. • (5) To the sample with a reaction time of 0 minutes, 50 μL of 0.2 mg protein/mL hepatic microsome solution was added. • (6) Each of the samples from (4) and (5) was left to stand at −20° C. for 30 minutes or longer, and then centrifuged at 4° C. and 3,000 rpm for approximately 10 minutes. • (7) The supernatant was subjected to measurement with LC/MS/MS, and, on the basis of the peak area obtained for the unchanged form, the residual rate (%) of the unchanged form was calculated as that for the case with an incubation time of 0 minutes was assumed as 100%.

Work on `COc1ncc(CNC(=O)c2cc(-c3ncccc3CO)ccc2F)cc1F` [Example 3, 2-Fluoro-N-((5-fluoro-6-methoxypyridin-3-yl)methyl)-5-(3-(hydroxymethyl)pyridin-2-yl)benzamide] yielded a Pain-related total score ([1]; 2 mg/kg s.c. three times, 180 min after induction with carrageenan, p<0.01 vs Vehicle (9.4 ± 0.5)) of 5.3 ± 0.3, a Pain-related total score ([1]; 2 mg/kg s.c. three times, Pre (before induction)) of 1.8 ± 0.5 and a Pain-related total score ([1]; 6 mg/kg s.c. three times, 180 min after induction with carrageenan, p<0.01 vs Vehicle (9.4 ± 0.5)) of 4.6 ± 0.3. The Pain-related total score ([1]; 6 mg/kg s.c. three times, Pre (before induction)) was 1.8 ± 0.5, the Pain-related total score ([1]; 20 mg/kg s.c. three times, 180 min after induction with carrageenan, p<0.01 vs Vehicle (9.4 ± 0.5)) was 3.9 ± 0.3 and the Pain-related total score ([1]; 20 mg/kg s.c. three times, Pre (before induction)) was 1.8 ± 0.4. The “acetaldehyde oxidation rate (no test compound = 100%)” value ([2]; test compound 10 μM) was 188%, the “acetaldehyde oxidation rate (no test compound = 100%)” value ([2]; test compound 30 μM) was 226% and the “Residual rate (%) of unchanged form” value [3] was 93%. The “Residual rate (%) of unchanged form” value [4] was 93%.
